This note sets out measurements from US20170226139A1, “CRYSTALLINE SALTS OF (Z)-O-OCTADEC-9-EN-1-YL O,O-DIHYDROGEN PHOSPHOROTHIOATE” (priority 2013, published 2017).

In data set [1] the test system is S. typhimurium strains TA98, TA100, TA1535 and TA1537 and E. coli strain WP2uvrA. In kind it is cell-based. The method, then: An Ames assay was conducted on Rx100.Lysine using S. typhimurium strains TA98, TA100, TA1535 and TA1537 and E. coli strain WP2uvrA. Two trials were performed. […] See Tables 38A and 38B, respectively. In the second trial, doses ranged from 0.160 to 16 μg/plate with some strains tested with activation and others without activation.

Data set [2] concerns Cultured human peripheral lymphocytes cells. The format is cell-based. To be noted: for Aberrant Cells Mean % −g: excluding gaps only; for Aberrant Cells Mean % +g: plus cells with gaps only. How it is done:
Cultured human peripheral lymphocytes cells were incubated in vitro with Rx100.Lysine for 3 hours with and without S9 mix and for 24 hours without S9 mix. For Rx100.Lysine, concentrations ranging from 3.39 to 500 μg/mL were examined in both treatment conditions. Adjusting for purity, the concentration ranges were 3.06 to 452 μg/mL. […] This increase was just above the historical vehicle control range (0 to 2.0%) for 3 hour treatment without metabolic activation. Thus the response observed is a weak positive and of questionable biological significance cytotoxicity was present just below the acceptable limit of 50±5% for this assay.
Thus, Rx100.Lysine was considered negative for inducing chromosome aberrations, polyploidy and endoreduplication, in cultured human peripheral blood lymphocytes following a 3 hour treatment with and a 24 treatment without metabolic activation.

A short description of data set [3]: Single subcutaneous dose pharmacokinetics in irradiated and unirradiated mice. The format is in vivo, C57BL/6 mice. To be noted: single SC dose 1 mg/kg. The source says: We performed a randomized, open-label, single-dose, four-arm, subcutaneously-administered, study of the pharmacokinetics of Rx100.Ammonia and Rx100.Lysine in irradiated and unirradiated C57BL/6 mice to evaluate the effect of salt form and irradiation on extravascular pharmacokinetics. The purpose of this study was to evaluate the pharmacokinetic parameters for two salt forms of Rx100 (Lysine and Ammonia) in healthy and PB irradiated (IR) mice when administered as a single dose. Each animal received a 1 mg/kg dose of Rx100.Lysine or Rx100.Ammonia. The animals receiving Rx100.Lysine or Rx100.Ammonia after irradiation were dosed 26±2 hours after irradiation and sampling times are relative to the time of test article dosing.
More specifically, randomized, acclimated, C57BL/6 mice were administered Rx100.Lysine or Rx100.Ammonia (10 mM L-histidine in sterile water for injection, or 1% ethanol, 2% propylene glycol in PBS, respectively) as a single dose as indicated in Table 25.
Blood was collected from 4 male and 4 female mice via cardiac puncture at pre-defined time points relative to test article dosing (0.5, 1, 2, 4, 6, 8, 12, 18, 24, and 48 hours) and collected into micro plasma separator vials (BD Microtainer®) containing lithium heparin. Blood was maintained on ice until centrifugation and subsequent processing. Blood draws were a terminal procedure. Plasma was frozen at −80° C. until submitted for bioanalysis. Sample collection was completed in September 2012. Samples were transferred to Covance in December 2013, and sample analysis was complete in the first quarter of 2014.
A total of 160 male and 160 female C57BL/6 10-12 week old mice were used in this study. Animals were randomized with weight stratification into treatment groups and given a second ear tag. Animals were acclimated for 16-19 days (See below Table 26). Prior to irradiation or dosing (in non-irradiated groups), animals were weighed a second time which was the basis of the animal dose delivered.
TLDs were used for dosimetry and confirmation of the delivered dose. TLDs were analyzed by MD Anderson and have a +/−5% accuracy. A total of 19 dosimeters were used with a mean measured dose of 15.33±0.166 Gy.
Analysis was performed using qualified and validated Phoenix® WinNonlin® Software. The final data provided was imported into Phoenix® WinNonlin®. All data presented in the tables and figures within the results section of this report were generated using the validated Phoenix® WinNonlin® Software.

Where [4] appears, read: 3-hour treatment without metabolic activation, positive control 1.00 μg/mL.
[5] abbreviates: 24-hour treatment without metabolic activation, positive control 0.300 μg/mL.
Where [6] appears, read: + IR (irradiated mice), whole group (not split by gender), 1 mg/kg.
Setting [7] is: healthy mice, whole group (not split by gender), 1 mg/kg.
Where [8] appears, read: irradiated mice (15.6 Gy, dosed 26 ± 2 h after), F, 1 mg/kg.
Setting [9] is: irradiated mice (15.6 Gy, dosed 26 ± 2 h after), M, 1 mg/kg.
The mark [10] stands for this setting: 3-hour treatment with metabolic activation, positive control 25.0 μg/mL.

SMILES strings stand for the structures. Like-named read-outs stand apart in the source and are kept apart here.

In the case of `Nc1ccc2cc3ccccc3cc2c1` [2-aminoanthracene], the “Revertant Colony Counts (Mean ± SD)” value was 2106 ± 68 ^N in data set [1] (TA100, with metabolic activation, positive control 2.5 μg/plate); 205 ± 11 ^N in data set [1] (TA1535, with metabolic activation, positive control 2.5 μg/plate); 176 ± 19 ^N C in data set [1] (TA1537, with metabolic activation, positive control 2.5 μg/plate); 634 ± 14 ^N in data set [1] (WP2uvrA, with metabolic activation, positive control 25.0 μg/plate).

Regarding `O=[N+]([O-])c1ccc2c(c1)Cc1ccccc1-2` [2-nitrofluorene], the “Revertant Colony Counts (Mean ± SD)” value in data set [1] (Without Metabolic Activation, TA98, positive control 1.0 μg/plate) was 329 ± 65 ^N.

On to `COc1ccc2nc3cc(Cl)ccc3c(NCCCNCCCl)c2c1` [ICR-191], for which the “Revertant Colony Counts (Mean ± SD)” value in data set [1] (Without Metabolic Activation, TA1537, positive control 2.0 μg/plate) was 562 ± 33 ^N.

On to `CO[C@@]12[C@H](COC(N)=O)C3=C(C(=O)C(C)=C(N)C3=O)N1C[C@@H]1N[C@@H]12` [Mitomycin C], for which, in data set [2] (setting [4]), the “Endoreduplicate Mean %” value turned out to be 0.0%, the “Polyploidy Mean %” value came to 0.0%, the “Aberrant Cells Mean % −g” value is 57.0% and the “Aberrant Cells Mean % +g” value came to 59.0%. Also, in data set [2] (setting [5]), the “Endoreduplicate Mean %” value was found to be 0.0%, the “Polyploidy Mean %” value was 0.0%, the “Aberrant Cells Mean % −g” value came to 58.0% and the “Aberrant Cells Mean % +g” value is 61.0%.

Take `CCCCCCCC/C=C\CCCCCCCCOP(O)(O)=S` [Rx100.Ammonia, (Z)—O-octadec-9-en-1-yl O,O-dihydrogen phosphorothioate]: the CL was found to be 10.5 mL/min/kg in data set [3] (IR females), 9.68 mL/min/kg in data set [3] (IR males), 14.5 mL/min/kg in data set [3] (healthy females) and 11 mL/min/kg in data set [3] (healthy males). Also, the area under the curve (AUC) in data set [3] (IR females, 1 mg/kg) came to 1591 ng·h/mL; in data set [3] (IR males, 1 mg/kg), 1721 ng·h/mL; in data set [3] (healthy males, 1 mg/kg), 1521 ng·h/mL. The “half-life, change after irradiation” value in data set [3] (IR versus healthy mice) is on record as “no change”. For the same compound, in data set [3] (healthy females, 1 mg/kg), the “exposure (AUC)” value stood at 1152 ng·h/mL. The Tmax in data set [3] (healthy mice, 1 mg/kg) fell in the range of 30 to 60 min; in data set [3] (irradiated (IR) mice, 26±2 hours after 15.6 Gy, 1 mg/kg) it was 30 to 60 min. The AUCINF_obs in data set [3] (setting [6]) turned out to be 1644.99 ng·h/mL; in data set [3] (healthy mice, F, 1 mg/kg) it was 1152.19 ng·h/mL; in data set [3] (healthy mice, M, 1 mg/kg), 1521.44 ng·h/mL; in data set [3] (setting [7]) it was 1342.00 ng·h/mL; in data set [3] (setting [8]) it was 1591.05 ng·h/mL; in data set [3] (setting [9]) it was 1720.87 ng·h/mL. Also, the CLss_F in data set [3] (setting [6]) turned out to be 10.132 mL/min/kg; in data set [3] (healthy mice, F, 1 mg/kg) it was 14.466 mL/min/kg; in data set [3] (healthy mice, M, 1 mg/kg) it was 10.954 mL/min/kg; in data set [3] (setting [7]), 12.419 mL/min/kg; in data set [3] (setting [8]), 10.475 mL/min/kg; in data set [3] (setting [9]) it was 9.685 mL/min/kg. Also, the Cmax in data set [3] (setting [6]) was found to be 466.71 ng/mL; in data set [3] (setting [7]), 383.75 ng/mL. Further, the HL_Lambda_z in data set [3] (setting [6]) stood at 1.37 h; in data set [3] (setting [7]), 1.78 h. Besides, the Vz_F in data set [3] (setting [6]) amounted to 1.20034 L/kg; in data set [3] (healthy mice, F, 1 mg/kg), 1.72837 L/kg; in data set [3] (healthy mice, M, 1 mg/kg), 1.3407 L/kg; in data set [3] (setting [7]), 1.91818 L/kg; in data set [3] (setting [8]), 1.22969 L/kg; in data set [3] (setting [9]) it was 1.27697 L/kg.

With `O=P1(N(CCCl)CCCl)NCCCO1` (stereo not drawn) [cyclophosphamide, reference compound], in data set [2] (setting [10]), the “Cytotoxicity (% of Control)” value is on record as 12 % of Control, the “Endoreduplicate Mean %” value turned out to be 0.0%, the “Polyploidy Mean %” value came to 0.0% and the “Aberrant Cells Mean % −g” value is 58.0%. Moreover, in data set [2] (setting [10]), the “Aberrant Cells Mean % +g” value stood at 65.0%.

Turning to `[N-]=[N+]=[N-]` [sodium azide], the “Revertant Colony Counts (Mean ± SD)” value is reported as 969 ± 137 ^N in data set [1] (Without Metabolic Activation, TA100, positive control 2.0 μg/plate) and 863 ± 45 ^N in data set [1] (Without Metabolic Activation, TA1535, positive control 2.0 μg/plate).
